Reference: PubChem BioAssay (NCI)
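How tested: cells in 96-well plates exposed to compound for 48 hours at five concentrations. Definition used: TGI = concentration required for complete inhibition of growth.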

Legend:
Assay in all cases: growth of human tumour cells (NCI), 48 h
[1] = test system: UO-31 renal
[2] = test system: UACC-257 melanoma
[3] = test system: OVCAR-3 ovarian
[4] = test system: CAKI-1 renal
[5] = test system: HT29 colon
[6] = test system: SF-295 CNS
[7] = test system: HCC-2998 colon
[8] = test system: OVCAR-5 ovarian
[9] = test system: HS 578T breast
[10] = test system: HCT-116 colon
[11] = test system: EKVX NSCLC
[12] = test system: A549 NSCLC
[13] = test system: MCF7 breast
[14] = test system: BT-549 breast
[15] = test system: SNB-19 CNS
[16] = test system: OVCAR-4 ovarian
[17] = test system: MALME-3M melanoma
[18] = test system: NCI/ADR-RES ovarian
[19] = test system: NCI-H23 lung
[20] = test system: HOP-92 NSCLC

CCC1(CC)C(=O)N(C(=O)c2ccccc2)N(C(=O)c2ccc(Cl)cc2)C1=O
TGI [1]: > 75 µM | TGI [2]: > 75 µM | TGI [3]: > 75 µM | TGI [4]: > 75 µM | TGI [5]: > 75 µM | TGI [6]: > 75 µM | TGI [7]: > 75 µM | TGI [8]: > 75 µM | TGI [9]: > 75 µM | TGI [10]: > 75 µM | TGI [11]: > 75 µM | TGI [12]: > 75 µM | TGI [13]: > 75 µM | TGI [14]: > 75 µM | TGI [15]: > 75 µM | TGI [16]: > 75 µM | TGI [17]: > 75 µM | TGI [18]: > 75 µM | TGI [19]: > 75 µM

COc1ccc2c(C)c(Oc3c(Cl)c(Cl)c(O)c(C#N)c3C#N)oc2c1
TGI [1]: > 100 µM | TGI [2]: > 100 µM | TGI [3]: > 100 µM | TGI [4]: > 100 µM | TGI [5]: > 100 µM | TGI [6]: > 100 µM | TGI [7]: > 100 µM | TGI [8]: > 100 µM | TGI [9]: > 100 µM | TGI [10]: > 100 µM | TGI [11]: > 100 µM | TGI [12]: > 100 µM | TGI [13]: > 100 µM | TGI [14]: > 100 µM | TGI [15]: > 100 µM | TGI [16]: > 100 µM | TGI [17]: > 100 µM | TGI [18]: > 100 µM | TGI [19]: > 100 µM

C=C1C[C@@H]2O[C@H]3[C@H]4[C@@H](C[C@@H](C)[C@@H](OC(C)=O)[C@H]42)[C@@H](C)CO[C@@]3(C)[C@H](OC(=O)CCCCCCC)C[C@H]1O
TGI [20]: 30.4 µM | TGI [1]: 29.7 µM | TGI [2]: 32.6 µM | TGI [3]: 37.2 µM | TGI [4]: 28 µM | TGI [5]: 46.2 µM | TGI [6]: 36.4 µM | TGI [7]: 30.9 µM | TGI [8]: 32 µM | TGI [9]: 36.4 µM | TGI [10]: 30.1 µM | TGI [11]: 31 µM | TGI [12]: 34 µM | TGI [13]: 40.4 µM | TGI [14]: 32.9 µM | TGI [15]: 32.4 µM | TGI [16]: 28.1 µM | TGI [18]: 30.7 µM | TGI [19]: 40.2 µM

CCCC1CC(=O)NC(=O)C1C(=O)OC(C)(C)C (stereo unspecified)
TGI [1]: > 100 µM | TGI [2]: > 100 µM | TGI [3]: > 100 µM | TGI [4]: > 100 µM | TGI [5]: > 100 µM | TGI [6]: > 100 µM | TGI [7]: > 100 µM | TGI [8]: > 100 µM | TGI [9]: > 100 µM | TGI [10]: > 100 µM | TGI [11]: > 100 µM | TGI [13]: > 100 µM | TGI [14]: > 100 µM | TGI [15]: > 100 µM | TGI [16]: > 100 µM | TGI [17]: > 100 µM | TGI [18]: > 100 µM | TGI [19]: > 100 µM

COc1ccc2nc3c([N+](=O)[O-])ccc4c3c(c2c1)NCCN4CCN(C)C
TGI [20]: 2.73 µM | TGI [1]: 3.42 µM | TGI [2]: 4.58 µM | TGI [3]: 2.4 µM | TGI [4]: 7.35 µM | TGI [5]: 2.34 µM | TGI [6]: 1.69 µM | TGI [8]: 9.89 µM | TGI [9]: 3.91 µM | TGI [10]: 1.3 µM | TGI [11]: 2.78 µM | TGI [12]: 2.19 µM | TGI [13]: > 10 µM | TGI [14]: 3.39 µM | TGI [15]: 2.27 µM | TGI [16]: 0.697 µM | TGI [17]: 1.56 µM | TGI [18]: 3.25 µM | TGI [19]: 2.86 µM

O=c1[nH]c(N/N=C\C(=N/Nc2nc3ccccc3c(=O)[nH]2)C(O)C(O)C(O)CO)nc2ccccc12 (stereo unspecified)
TGI [20]: > 100 µM | TGI [1]: > 100 µM | TGI [2]: > 100 µM | TGI [3]: > 100 µM | TGI [4]: > 100 µM | TGI [5]: > 100 µM | TGI [6]: > 100 µM | TGI [8]: > 100 µM | TGI [9]: > 100 µM | TGI [10]: > 100 µM | TGI [11]: > 100 µM | TGI [12]: > 100 µM | TGI [13]: > 100 µM | TGI [14]: > 100 µM | TGI [15]: > 100 µM | TGI [18]: > 100 µM | TGI [19]: > 100 µM
